Assay results taken from patent US8715529B1, “Synthesis and applications of triazaborolopyridinium compounds and substituted triazaborolopyridinium compounds and methods of use” (Arrowhead Center, Inc., priority 2012, dated 2014).

Tests used:
[1] = target: T1, human kinesin Eg5 motor protein (Homo sapiens, UniProt P52732); assay: Monopolar spindle formation in HeLa cells treated with MSTLC probes (fixed, tubulin/DNA staining); format: cell-based; conditions: read-out: EC50, monopolar spindles / block of bipolar spindle
T1 construct: endogenous in cells; host or cells: HeLa cells
T1 sequence (P52732 1-1056): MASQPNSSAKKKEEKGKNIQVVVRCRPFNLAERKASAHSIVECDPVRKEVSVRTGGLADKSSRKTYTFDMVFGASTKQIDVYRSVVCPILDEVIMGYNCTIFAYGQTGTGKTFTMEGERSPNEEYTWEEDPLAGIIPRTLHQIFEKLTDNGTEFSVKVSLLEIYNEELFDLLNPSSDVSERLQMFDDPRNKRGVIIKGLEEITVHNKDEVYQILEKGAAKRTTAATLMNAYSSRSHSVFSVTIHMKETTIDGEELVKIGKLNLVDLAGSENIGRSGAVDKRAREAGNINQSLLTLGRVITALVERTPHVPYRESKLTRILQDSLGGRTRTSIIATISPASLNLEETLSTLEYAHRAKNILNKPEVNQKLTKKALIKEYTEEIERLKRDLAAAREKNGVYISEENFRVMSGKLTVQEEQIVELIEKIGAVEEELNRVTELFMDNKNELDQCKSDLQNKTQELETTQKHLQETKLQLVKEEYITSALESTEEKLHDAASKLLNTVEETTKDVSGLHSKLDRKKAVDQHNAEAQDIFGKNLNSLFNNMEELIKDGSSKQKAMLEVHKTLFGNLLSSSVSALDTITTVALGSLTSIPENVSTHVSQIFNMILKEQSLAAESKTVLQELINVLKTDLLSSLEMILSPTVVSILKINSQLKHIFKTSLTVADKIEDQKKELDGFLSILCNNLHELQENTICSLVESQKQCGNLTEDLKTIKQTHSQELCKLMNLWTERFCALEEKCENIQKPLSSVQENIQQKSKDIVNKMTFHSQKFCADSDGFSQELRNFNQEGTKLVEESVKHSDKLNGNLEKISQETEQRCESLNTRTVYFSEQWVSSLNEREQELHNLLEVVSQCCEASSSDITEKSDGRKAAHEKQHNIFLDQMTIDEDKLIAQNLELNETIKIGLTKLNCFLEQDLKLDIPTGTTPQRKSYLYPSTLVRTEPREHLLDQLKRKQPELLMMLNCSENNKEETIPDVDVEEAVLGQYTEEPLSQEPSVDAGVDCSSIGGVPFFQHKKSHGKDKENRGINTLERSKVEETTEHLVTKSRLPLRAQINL
Method: The inhibitory activity of human kinesin Eg5 motor protein was tested using probes 3.3, 3.5 and 413. HeLa cells were treated with 10 μM of each probe, as well as the unconjugated inhibitor Methoxy-S-Trityl-L-cysteine. Then cells were incubated with anti-α tubulin 1:1000 primary antibody, AlexaFluor-546 conjugated rabbit anti-mouse secondary antibody and Hoechst 33342 for staining microtubules and DNA respectively. Cells were subsequently washed and mounted onto glass sides with 90% glycerol and imaged using a Zeiss Axiovert 200M inverted microscope outfitted with epifluorescence optics, and a Zeiss Apotome structured illumination module.

[2] = tested on: HeLa cells; assay: Live imaging of HeLa cells treated with MSTLC probes; format: cell-based; conditions: mitotic HeLa cells
[3] = tested on: estrogen receptor (ER)-dependent promoter; assay: Invitrogen SelectScreen Profiling Service, ER-mediated transcription; format: cell-based; conditions: read-out: ED50, ER-mediated transcription
[4] = tested on: phospho-ERK; assay: Immunoblot of phospho-ERK accumulation in MCF7 cells; format: cell-based; conditions: 10 nM, about 15 minutes
Method: FIG. 9 illustrates that E2-HPY(530) treatment leads to the accumulation of phospho-ERK in MCF7 breast cancer cells. […] After about a 15 minute treatment, protein lysates were isolated for immunoblot analysis. The upper panel of […] was probed with pERK1/2 mAb (1:600, Santa Cruz Biotechnology) overnight at about 4° C. Lower panel was obtained after stripping the membrane and probing (1:3000) with Actin mAb overnight at about 4° C. Primary antibodies were visualized with horseradish peroxidase conjugated secondary antibodies.
FIG. 9 illustrates that E2-HPY(530) treatment leads to the accumulation of phospho-ERK in MCF7 breast cancer cells. […] Primary antibody raised against P-ERK was used to visualize p-ERK levels. Actin expression determined by Actin specific mAb was used as a loading control.

[5] = Octanol/water partition coefficient (Log Po/w); format: physicochemical

EC50 [1]	EC50 [3]	logP [5]	SMILES	spindle phenotype [2]	accumulation of phospho-ERK [4]
~1130 nM			COc1ccc(C(SC[C@H](N)C(=O)NCCC#CC2=CN3C(=N[N+](=C(C)C)[B-]3(F)F)C=C2)(c2ccccc2)c2ccccc2)cc1 [3.3]	formed monopolar spindles	
~1030 nM			COc1ccc(C(SC[C@H](N)C(=O)NCCC#CC2=CN3C(=N[N+](=C(C)C)[B-]3(OC)OC)C=C2)(c2ccccc2)c2ccccc2)cc1 [3.5]	formed monopolar spindles	
	0.11 nM		C[C@]12CC[C@@H]3c4ccc(O)cc4CC[C@H]3[C@@H]1CC[C@@H]2O [E2, 17-β-estradiol]		resulted in the accumulation of phospho-ERK
		0.79	F[B-]1(F)N2C=C(I)C=CC2=N[N+]1=C1c2ccccc2-c2ccccc21 [HPY(530)-Iodide, 2-(9H-fluoren-9-ylidene)-3,3-difluoro-6-iodo-2,3-dihydro-[1,2,4,3]triazaborolo[4,5-a]pyridin-2-ium-3-uide]		
